# Experimental data published in patent EP4424699A1, “HBV CORE PROTEIN BINDING COMPOUNDS AND USES THEREOF” (Julius-Maximilians-Universität Würzburg, priority 2023, dated 2024).
# Positions of bridges follow the written chain, without caps; N, C: chain ends. Non-standard residues stand in square brackets, D forms with d. Residues, ends and D or L forms follow the SMILES beside them. Chains are numbered I, II in the order given. AEEA = NCCOCCOCC(=O)O
# Legend:
# [1] = target: T1, HBc capsids (Hepatitis B virus genotype D subtype ayw, UniProt P03146); settings: monomeric peptides; cited from earlier work
# [2] = tested on: HBV production in Hep G2 human hepatoblastoma cell lines; settings: cited from earlier work; for IC50: inhibition of HBV production
# [3] = target: full length wild type HBV core protein (fl wt HBc), capsids (Hepatitis B virus (genotype D; strain ayw)) (UniProt P03146); assay: cryo-EM maps of HBc capsids with bound dimer
# [4] = target: full length wild type HBV core protein (fl wt HBc), capsids (Hepatitis B virus (genotype D; strain ayw)) (UniProt P03146); assay: ITC, dimer titrated into fl wt HBc capsids, 20 °C, one site model
# [5] = target: full length wild type HBV core protein (fl wt HBc), capsids (Hepatitis B virus (genotype D; strain ayw)) (UniProt P03146); assay: ITC KD of the dimer against the literature KD of monomeric SLLGRM
# [6] = target: HBc's interaction to the surface protein L-HBs (Hepatitis B virus genotype D subtype ayw, UniProt P03146); settings: result in words; cited from earlier work
# [7] = target: full-length wild type HBc (fl wt HBc) (Hepatitis B virus genotype D subtype ayw, UniProt P03146); settings: result in words; cited from earlier work
# [8] = target: T2, fl wt HBc capsids (Hepatitis B virus genotype D subtype ayw, UniProt P03146); assay: Isothermal titration calorimetry (ITC) of peptide dimers with HBc capsids; assay type: binding
# T2 construct: Full length wild type (fl wt) HBc; made in house; host or cells: E. coli
# Description: Binding stoichiometry, binding affinity and thermodynamic parameters were determined. Table 2 iTC200 instrument's specifications used for the interaction analysis between peptide-dimers and capsids.
# [9] = physchem; settings: buffer obtained from the dialysis of capsids (buffer A), pH 7.5, aqueous buffer
# Description: Purified and pooled fractions (ca 8 ml) of capsids were filtered (Rotilabo syringe filter with a pore size of 220 nm, Carl Roth GmbH Co. KG, Karlsruhe, Germany), dialysed against 1.4 L buffer A (40 mM HEPES, 200 mM NaCl, 1 mM MgCl2, 1 mM CaCl2, pH 7.5) using a dialysis membrane tube (Spectra Por Biotech cellulose ester tube, 1 MDa MWCO, Spectrum Laboratories, Inc., Rancho Dominguez, CA, USA). The dialysis was performed at 4 °C under gentle stirring for 16 h overnight. Next day, the dialysed sample was removed from the dialysis tube and concentrated in a centrifuge using a concentrator (30 kDa MWCO Spin-X UF 6 mL, Corning Inc., Corning, NY, USA). Before the determination of the concentration by the Bradford assay (Roti Nanoquant, Carl Roth GmbH Co. KG, Karlsruhe, Germany) the concentrate was filtered (centrifugal filter unit Ultrafree MC, pore size of 100 nm, Merck KGaA, Darmstadt, Germany). The dimeric peptides were dissolved in the buffer obtained from the dialysis of capsids. […] Before filling the ITC cell and syringe, all samples were degassed for 10 minutes at 20 °C (ThermoVac, Malvern Panalytical, Malvern, Worcestershire, UK). Using a MicroCal iTC200 instrument (Malvern Panalytical, Malvern, Worcestershire, UK) solutions of dimeric peptides were titrated into solutions of capsids according to specifications in the Table 2. […]
# [10] = target: T3, HBc (Hepatitis B virus genotype D subtype ayw, UniProt P03146); assay: Turbidity assay of HBc solutions at 350 nm; settings: 50 µM HBc solution, RT
# T3 construct: Full length wild type (fl wt) HBc; made in house; host or cells: E. coli
# Description: The concentrations of the P1-, P2- and SLLGRM-dimers were varied between 0.1-100 µM and the concentration of HBc kept constant at 10 µM for the P1- and P2-dimer and at 50 µM for the SLLGRM-dimer. All experiments were performed using a standard photometer (GENESYS™ UV/VIS spectral photometer, Thermo Fisher Scientific, Hillsboro, OR, USA) at RT and at a wavelength of 350 nm using disposable UV transparent cuvettes.
# [11] = target: T1, HBc capsids; assay: Cryo-EM of HBc capsids in complex with peptide dimers; assay type: binding; design: Full length wild type (fl wt) HBc; made in house; host or cells: E. coli; settings: from EM-maps
# Description: In a plasma cleaner (model PDC-002. Harrick Plasma, Ithaca, NY, USA) holey carbon grids (R1.2/1.3, 300 mesh Cu grids, Quantifoil Micro Tools, Jena, Germany) were made hydrophilic by plasma discharging. This was done at a pressure of 29 Pa for 2 minutes using ambient air as plasma medium at "medium power" of the instrument. First, solutions of purified HBc (200 µM) in complex with the P1dC- and the SLLGRM-dimer (each 400 µM) were prepared in buffer A and 3.5 µl aliquots of each sample were applied onto the grids. For plunge freezing of grids ethane was used as medium (liquefied by liquid nitrogen) with the help of a Vitrobot (mark IV, FEI Company, Hillsboro, OR, USA) using filter papers of Whatman (type 541). The Vitrobot had following settings: no wait and drain times, 6 s of blot time, blot force of 25 and a nominal humidity of 100 %. The frozen grids were stored in liquid nitrogen for at least one night before being used for image acquisition.
# Cryo-EM was done as previously described (Makbul, Kraft, et al., 2021). In brief: Movies were acquired with the software EPU on a Krios G3 electron microscope equipped with a Falcon III camera (Thermo Fisher Scientific, Hillsboro, OR, USA) in linear mode at a magnification of 75,000 with an accelerating voltage of 300 kV. The total exposure was 40 e-/Å^2 and was fractionated across 20 fractions. […]
molecule,measurement,setting,value
GSLLGRMKGA [Pep2],Kd,[1],68 µM
same,production HB viruses reduced to,[2]; at high micromolar concentrations,ca. 30%
same,IC50,[2],0.8 µM
SLLGRMKG [23],IC50,[2],6.4 µM
MHRSLLGRMKGA [Pep1],Kd,[1],26 µM
SLLGRM-dimer (peptide),molar ratio,[3],0.25
same,Kd,[4],4.89 µM
same,N (stoichiometry),[4],0.145
same,binding enthalpy (ΔH),[4],-25300
same,binding entropy (ΔS),[4],-62
same,fold affinity increase over the respective monomer,[5],26 fold
SLLGRM,Kd,[1],130 µM
ALLGRMKG [21],inhibition of HBc's interaction to L-HBs,[6],inhibited
LLGRMK,binding to fl wt HBc,[7],bound
CSCC[C@H](NC(=O)[C@H](CCCNC(=N)N)NC(=O)CNC(=O)[C@H](CC(C)C)NC(=O)[C@H](CC(C)C)NC(=O)[C@@H](N)CO)C(=O)NCCOCCOCC(=O)NCCOCCOCC(=O)NCCOCCOCC(=O)NCCOCCOCC(=O)NCCCC[C@@H](NC(=O)COCCOCCNC(=O)COCCOCCNC(=O)COCCOCCNC(=O)COCCOCCNC(=O)[C@H](CCSC)NC(=O)[C@H](CCCNC(=N)N)NC(=O)CNC(=O)[C@H](CC(C)C)NC(=O)[C@H](CC(C)C)NC(=O)[C@@H](N)CO)C(=O)O [SLLGRM-dimer] (I: H-SLLGRM[AEEA][AEEA][AEEA][AEEA][dK]-OH / II: H-SLLGRM[AEEA][AEEA][AEEA][AEEA]; amide I:11-II:C; N-terminus and C-terminus assumed),affinity increase over the respective monomers,[8]; KD of dimer versus KD of monomer,26 fold
same,Ka,"[8]; association constant, ITC at 20 °C, refers to monomeric HBc",208200 ±31284 (1)/(M)
same,ΔH,"[8]; binding enthalpy, ITC",-25.316 ± 2.748 kcal/mol
same,ΔS,"[8]; binding entropy, ITC",-62 ±10 (cal)/(mol × K)
same,N,"[8]; stoichiometry, ITC at 20 °C, one site model, refers to monomeric HBc",0.145 ±0.023
same,solubility,[9],≥ 8 mM
same,concentration inducing turbidity,[10],high micromolar concentrations
same,molar ratio to HBc capsids,[11],0.25
SLLGRMKGA [22],IC50,[2],2.4 µM
